Assay results as given in EP3064205A1, “Therapeutic use of isomeric forms of 2-(4-chlorophenyl)quinolin-4-yl)(piperidin-2-yl)methanol” (Glionova AB, priority 2015, dated 2016).
Like-named read-outs stand apart in the source and are kept apart here.

What was measured:
Experiment in all cases: 3D clonogenic assay (PDX)
Assay type in all cases: cell-based, human
MEXF 672 = details: MEXF 672, Melanoma; for IC50: Homo sapiens
How it was run: (§1)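 PDX tumors from NMRI nu/nu mice were enzymatically dissociated into cell suspensions and plated in soft agar. After 24 h, cells received continuous exposure to 10 concentrations (50 µM down to 0.0015 µM, in duplicate) for 8–13 days at 37 °C. Colonies >50 µm were stained with INT tetrazolium and counted by automated imaging; IC50 values came from 4-parameter fits.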

RXF 1781 = details: RXF 1781, Renal; for IC50: Homo sapiens
How it was run: as §1

BXF 1258 = details: BXF 1258, Bladder; for IC50: Homo sapiens
How it was run: as §1

LXFL 430 = details: LXFL 430, Lung Large Cell; for IC50: Homo sapiens
How it was run: as §1

SXFS 117 = details: SXFS 117, Sarcoma Soft Tissue; for IC50: Homo sapiens
How it was run: as §1

PAXF 2116 = details: PAXF 2116, Pancreas; for IC50: Homo sapiens
How it was run: as §1

PRXF PC-3M = details: Prostate; for IC50: Homo sapiens
How it was run: as §1

MEXF 622 = details: MEXF 622, Melanoma; for IC50: Homo sapiens
How it was run: as §1

PAXF 2094 = details: PAXF 2094, Pancreas; for IC50: Homo sapiens
How it was run: as §1

MEXF 276 = details: MEXF 276, Melanoma; for IC50: Homo sapiens
How it was run: as §1

Which IC50 (MEXF 672; read-out: abs. IC50) does the source give for `O[C@H](c1cc(-c2ccc(Cl)cc2)nc2ccccc12)[C@@H]1CCCCN1` [S1, (R)-(2-(4-chlorophenyl)quinolin-4-yl)((S)-piperidin-2-yl)methanol] here?
Its IC50 is 8.96 µM.

What about the IC50 (MEXF 672; read-out: rel. IC50) of the same molecule?
Its IC50 is 8.56 µM.

What about the “b (bottom plateau of concentration-effect curve)” value (MEXF 672) of the same molecule?
The value was 39.

What about the “t (top plateau of concentration-effect curve)” value (MEXF 672) of the same molecule?
The value was 96.

And the IC50 (RXF 1781; read-out: abs. IC50)?
Its IC50 is 11.1 µM.

What about the IC50 (RXF 1781; read-out: rel. IC50) of the same molecule?
Its IC50 is 11.1 µM.

And the “b (bottom plateau of concentration-effect curve)” value (RXF 1781)?
Its value is 8.

What about the “t (top plateau of concentration-effect curve)” value (RXF 1781) of the same molecule?
The value was 112.

What about the “b (bottom plateau of concentration-effect curve)” value (BXF 1258) of the same molecule?
Its value is 44.

What about the “t (top plateau of concentration-effect curve)” value (BXF 1258) of the same molecule?
Its value is 103.

And the IC50 (BXF 1258; read-out: abs. IC50)?
The IC50 was 7.47 µM.

And the IC50 (BXF 1258; read-out: rel. IC50)?
Its IC50 is 2.54 µM.

What about the IC50 (LXFL 430; read-out: abs. IC50) of the same molecule?
The IC50 was 9.06 µM.

And the IC50 (LXFL 430; read-out: rel. IC50)?
Its IC50 is 8.98 µM.

And the “b (bottom plateau of concentration-effect curve)” value (LXFL 430)?
The value was 14.

And the “t (top plateau of concentration-effect curve)” value (LXFL 430)?
Its value is 99.

What about the IC50 (SXFS 117; read-out: abs. IC50) of the same molecule?
The IC50 was 8.55 µM.

What about the IC50 (SXFS 117; read-out: rel. IC50) of the same molecule?
The IC50 was 8.58 µM.

What about the “b (bottom plateau of concentration-effect curve)” value (SXFS 117) of the same molecule?
Its value is 4.

What about the “t (top plateau of concentration-effect curve)” value (SXFS 117) of the same molecule?
The value was 91.

What about the IC50 (PAXF 2116; read-out: abs. IC50) of the same molecule?
The IC50 was 9.16 µM.

What about the IC50 (PAXF 2116; read-out: rel. IC50) of the same molecule?
The IC50 was 8.85 µM.

What about the “b (bottom plateau of concentration-effect curve)” value (PAXF 2116) of the same molecule?
Its value is 32.

What about the “t (top plateau of concentration-effect curve)” value (PAXF 2116) of the same molecule?
Its value is 112.

And the IC50 (PRXF PC-3M; read-out: abs. IC50)?
The IC50 was 16.9 µM.

And the IC50 (PRXF PC-3M; read-out: rel. IC50)?
The IC50 was 16.9 µM.

What about the “b (bottom plateau of concentration-effect curve)” value (PRXF PC-3M) of the same molecule?
The value was 3.

What about the “t (top plateau of concentration-effect curve)” value (PRXF PC-3M) of the same molecule?
The value was 98.

What about the IC50 (MEXF 622; read-out: abs. IC50) of the same molecule?
The IC50 was 9.21 µM.

What about the IC50 (MEXF 622; read-out: rel. IC50) of the same molecule?
Its IC50 is 9.14 µM.

What about the “b (bottom plateau of concentration-effect curve)” value (MEXF 622) of the same molecule?
Its value is 21.

And the “t (top plateau of concentration-effect curve)” value (MEXF 622)?
The value was 86.

And the IC50 (PAXF 2094; read-out: abs. IC50)?
The IC50 was 8.88 µM.

And the IC50 (PAXF 2094; read-out: rel. IC50)?
The IC50 was 8.64 µM.

What about the “b (bottom plateau of concentration-effect curve)” value (PAXF 2094) of the same molecule?
Its value is 30.

What about the “t (top plateau of concentration-effect curve)” value (PAXF 2094) of the same molecule?
Its value is 105.

What about the IC50 (MEXF 276; read-out: abs. IC50) of the same molecule?
The IC50 was 4.73 µM.

And the IC50 (MEXF 276; read-out: rel. IC50)?
The IC50 was 4.65 µM.

What about the “b (bottom plateau of concentration-effect curve)” value (MEXF 276) of the same molecule?
The value was 15.

And the “t (top plateau of concentration-effect curve)” value (MEXF 276)?
The value was 95.
